# According to patent US5302514A, “Maltooligoside derivative, reagent for determining α-amylase activity containing the same as effective ingredient and a process for determining the α-amylase activity using same” (Kikkoman Corporation, priority 1991, dated 1994):
# Assays:
# [1] = biological target: T1, amylase derived from human pancreatic juice (human P type α-amylase) (Homo sapiens, UniProt P04746); test: Km value, P type α-amylase; type: biochemical; details: pH 7.0, 37° C., Lineweaver-Burk
# T1 sequence (P04746 16-511): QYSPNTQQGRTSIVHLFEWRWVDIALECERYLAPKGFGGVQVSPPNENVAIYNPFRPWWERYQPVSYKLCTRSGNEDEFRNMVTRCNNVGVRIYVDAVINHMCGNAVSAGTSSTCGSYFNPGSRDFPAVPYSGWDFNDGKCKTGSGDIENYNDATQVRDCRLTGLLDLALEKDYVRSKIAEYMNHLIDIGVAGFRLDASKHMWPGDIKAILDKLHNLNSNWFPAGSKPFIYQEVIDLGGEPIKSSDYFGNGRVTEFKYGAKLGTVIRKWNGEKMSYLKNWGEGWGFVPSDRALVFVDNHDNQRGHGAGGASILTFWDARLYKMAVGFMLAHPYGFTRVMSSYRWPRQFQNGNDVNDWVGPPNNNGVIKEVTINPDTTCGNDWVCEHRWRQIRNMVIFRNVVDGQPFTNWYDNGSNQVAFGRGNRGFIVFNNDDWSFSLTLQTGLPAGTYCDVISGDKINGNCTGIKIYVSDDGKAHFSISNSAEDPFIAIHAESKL
# Protocol: Km values, hydrolysis rate, water solubility and the patterns of action in the hydrolysis of the present substrates 2-chloro-4-nitrophenyl 5^5 -eno-4^5 -O-mesyl-β-D-maltopentaoside (EMG5CNP) and 2-chloro-4-nitrophenyl 6^5 -azido-6^5 -deoxy- β-D-maltopentaoside (ADG5CNP) obtained in Example were examined in accordance with the following methods.
# Substrate solutions were prepared by dissolving in a 50 mM phosphate buffer (pH=7.0) containing 40 mM NaCl and 2 mM MgCl2 a substrate to 0.16, 0.32, 0.48, 0.64, 0.80 and 0.96 mM, respectively.
# The Km value of each substrate solution was obtained by measuring the hydrolysis rate of the substrate in accordance with the same procedure as in the measurement of hydrolysis rate described below and roughly calculating the Lineweaver-Burk's reciprocal plot (see "Tanpaku-Kohso no Jikken-hou", ed. Takeichi Horio & Jinpei Yamashita, Nanko-do, 1981).
# Each substrate was dissolved in a 50 mM phosphate buffer (pH=7.0) containing 40 mM NaCl and 2 mM MgCl2 to make three substrate solutions in a concentration of 0.8-1.6 times and three substrate solutions in a concentration of 1.6-3.2 times per the roughly calculated Km value in the aforementioned paragraph (ii).
# The Km value was calculated in accordance with the same procedure as in the aforementioned paragraph (ii).
# (§1) P: amylase derived from human pancreatic juice, […]
# [2] = biological target: T2, amylase derived from human saliva (human S type α-amylase) (Homo sapiens, UniProt P0DUB6); test: Hydrolysis rate, S type α-amylase; type: biochemical; details: relative to hydrolysis rate of 3 mM G5CNP defined as 10, substrate 7-9 times the Km
# T2 sequence (P0DUB6 16-511): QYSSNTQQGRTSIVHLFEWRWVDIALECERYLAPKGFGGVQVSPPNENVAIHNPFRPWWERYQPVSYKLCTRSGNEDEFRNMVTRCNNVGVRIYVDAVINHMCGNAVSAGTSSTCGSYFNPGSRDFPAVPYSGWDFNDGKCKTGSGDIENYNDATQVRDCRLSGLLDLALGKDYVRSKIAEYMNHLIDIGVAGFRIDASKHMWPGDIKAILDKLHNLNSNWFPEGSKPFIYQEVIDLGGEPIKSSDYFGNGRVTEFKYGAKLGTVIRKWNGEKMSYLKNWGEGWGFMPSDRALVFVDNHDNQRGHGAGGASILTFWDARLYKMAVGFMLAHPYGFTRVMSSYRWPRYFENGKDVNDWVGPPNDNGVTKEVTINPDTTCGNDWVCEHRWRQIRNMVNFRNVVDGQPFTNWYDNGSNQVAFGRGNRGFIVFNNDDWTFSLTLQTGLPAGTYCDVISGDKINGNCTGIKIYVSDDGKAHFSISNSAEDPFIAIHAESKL
# Protocol: The coupled enzyme solution was prepared in the same manner as in the step (2) of Example 5.
# (§2) Commercially available human P type and S type α-amylase solutions having a concentration of ca. 500 IU/l were prepared in the same manner as in the step (3) of Example 5.
# With 250 μl of the α-amylase solution prepared in (iii) was mixed 1.0 ml of the coupled enzyme. The mixture was heated at 37° C. for 1 minute, and 2.0 ml of the substrate solution was added with stirring to the mixture. The variation of absorbance at 400 nm was measured for 2 minutes after heating the mixture at 37° C. for 2 minutes. The hydrolysis rate of each substrate, namely the variable absorbance per unit time was expressed with the relative values to the hydrolysis rate of 3 mM G5CNP (the reference substrate) which is defined as 10.
# S: amylase derived from human saliva.
# [3] = Solubility in water; type: physicochemical; details: 20 g of substrate added to 100 ml of water
# Protocol: To 100 ml of water was added 20 g of a substrate, and the dissolution state was observed.
# [4] = biological target: T1, amylase derived from human pancreatic juice (human P type α-amylase); test: Patterns of action (hydrolyzed product by HPLC), P type α-amylase; type: biochemical; details: 0.5 mM substrate, 37° C., 20 minutes
# Protocol: as §2
# To 1.0 ml of the substrate solution was added 100 μl of the α-amylase solution prepared in the paragraph (iii) of the aforementioned hydrolysis rate, and the mixture, after stirred sufficiently, was subjected to reaction at 37° C. for 20 minutes. The hydrolyzed product was determined quantitatively by the high performance liquid chromatography of the reaction mixture.
# as §1
Km [1] [µM],Hydrolysis rate [2],Solubility in water [3],"Patterns of action, hydrolyzed product G2CNP [4] [mol %]","Patterns of action, hydrolyzed product G3CNP [4] [mol %]","Patterns of action, hydrolyzed product G4CNP [4] [mol %]","Patterns of action, hydrolyzed product GCNP [4] [mol %]",Structure (SMILES)
170,10,Good,97,3,0,0,"[N-]=[N+]=NC[C@H]1O[C@H](O[C@H]2[C@H](O)[C@@H](O)[C@@H](O[C@H]3[C@H](O)[C@@H](O)[C@@H](O[C@H]4[C@H](O)[C@@H](O)[C@@H](O[C@H]5[C@H](O)[C@@H](O)[C@H](Oc6ccc([N+](=O)[O-])cc6Cl)O[C@@H]5CO)O[C@@H]4CO)O[C@@H]3CO)O[C@@H]2CO)[C@H](O)[C@@H](O)[C@@H]1O [ADG5CNP, 2-chloro-4-nitrophenyl 6^5-azido-6^5-deoxy-β-D-maltopentaoside]"
130,10,Good,97,0,0,3,"C=C1O[C@H](O[C@H]2[C@H](O)[C@@H](O)[C@@H](O[C@H]3[C@H](O)[C@@H](O)[C@@H](O[C@H]4[C@H](O)[C@@H](O)[C@@H](O[C@H]5[C@H](O)[C@@H](O)[C@H](Oc6ccc([N+](=O)[O-])cc6Cl)O[C@@H]5CO)O[C@@H]4CO)O[C@@H]3CO)O[C@@H]2CO)[C@H](O)[C@@H](O)[C@@H]1OS(C)(=O)=O [EMG5CNP, 2-chloro-4-nitrophenyl 5^5-eno-4^5 -O-mesyl-β-D-maltopentaoside]"
